Results: patent US8263757B2, “Promiscuous HER-2/Neu CD4 T cell epitopes” (Dendreon Corporation, priority 2006, dated 2012)

Tests used:
[1] = tested on: T cell clone HER500.23c21; assay: Antigen-specific stimulation of T cell clone HER500.23c21 by protein antigens presented by autologous PBMC (IFNγ ELISA, IL-2 by HT-2 proliferation); format: cell-based, human; details: autologous PBMC presentation, increasing doses of antigen; for IFNγ and IL-2 production by HER500.23c21 in response to antigen: 48 hours
Procedure: FIG. 1. T cell clone HER500.23c21 is HER-2/Neu specific. (A) HER500 (amino acids ▪ and BA7072 (HER500/GM-CSF fusion protein) ♦ specific IFNγ production by HER500.23c21 was measured using ELISA after autologous PBMC presentation of the antigens; background was also tested ▴. Assay was set up in triplicate in 96 well round bottom plates in complete IMDM media with 10% FBS. Autologous PBMCs were used at 2×10^5 cells/well and T cell clone HER500.23c21 was added at 1×10^5 cells/well. Antigens were at the final concentrations shown. Assay was incubated for 48 hours at 37° C. with 5% CO2 and supernatant was removed from wells to test for cytokine production. (A) IFNγ production. Data points shown represent the calculated pg/mL for each antigen concentration. (B) IL-2 production for the same assay was measured using HT-2 cell proliferation. Data points represent the mean CPM values for each antigen concentration.
Identification and Characterization of HER-2/neu specific T cell clones. Clones were screened for antigen specificity using autologous PBMC and antigen or autologous EBV-LcL and Her500 peptides. Stimulations were set up in 96 well round bottom plates in cRPMI+10% FBS media and incubated for 48 hours at 37° C. with 5% CO2. Additionally, clones were stained for CD4 and CD8 surface expression by flow cytometry.
Cytokine Production. To determine cytokine production in the antigen specific stimulation assays, after 48 hours, 200 μL of supernatant was pulled from cultures and tested for both IL-2 and IFNγ production. IL-2 production was measured using the IL-2 dependent line HT-2 (ATCC). HT-2 cells were grown in IMDM with 10% FBS and 100 uM NEAA, 1 mM Sodium Pyruvate, 2 mM L-glutamine, […], 50 U/mL Streptomycin, 20 mM HEPES and 20 uM 2-Mercaptoethanol (cIMDM+10% FBS) and fed twice a week with 20 ng/mL rIL-2. For the assay, 4 days after HT-2 cells were split, cells were washed with IMDM+10% FBS to remove all rIL-2, and cells were added to 96 well round bottom plates at 1×10^4 cells/well in cIMDM+10% FBS. Supernatants from antigen specific stimulation were added to wells and plates were incubated 24-30 hours at 37° C. The following day 1 μCi of ^3[H] TdR was added for the final 6 hours of the assay and plates were harvested to glass fiber filter mats and DNA incorporation of the radioisotope, or proliferative response, was determined by counts per minute using a liquid scintillation counter (PerkinElmer Life and Analytical Sciences, Inc. Boston, Mass.). IFNγ production was measured using anti-human IFNγ antibody pairs for ELISA (BD Pharmingen, San Diego, Calif.). […] 2M HCl was added to stop the reaction and plates were read for absorbance at 492 nm on a spectrophotometer. […]

[2] = tested on: T cell clone HER500.23c21; assay: Minimal epitope: truncated HERp270-284 peptides presented by EBV LcL lines of diverse HLA-DRB1 alleles to HER500.23c21; format: cell-based, human; details: presented by EBV LcL lines representing HLA-DRB1 alleles *0301, *0302, *1301 and *1402
Description: FIG. 5. Graphic depiction of IFNγ production by HER500.23c21 following exposure to peptides presented by EBV LcL lines of diverse HLA-DRb1 alleles. The peptides were 9-mers (SEQ ID NOS:3-9) within the HER-2/Neu peptide 270-284 (SEQ ID NO:2).
FIG. 6. Graphic depiction of IFNγ production by HER500.23c21 following exposure to peptides presented by EBV LcL lines of diverse HLA-DRb1 alleles. The peptides were 10- or 11-mers (SEQ ID NOs:12-15, 10, 1, 16-19 and 11, respectively) within the HER-2/Neu peptide 270-284.
Because of the clear response of HER500.23c21 to HER-2/Neu protein sequences, the specific epitope recognized by HER500.23c21 was mapped using peptides. HER500.23c21 was tested against a panel of 125 individual overlapping 15-mer peptides covering the HER-2/Neu protein sequences within HER500. Each peptide was used at 1 ug/ml with autologous EBV LCL cells as antigen presenting cells. […]
In this series of experiments, additional peptides derived from the HER-2/Neu protein were tested for their potential as promiscuous MHC Class II HER-2/neu epitopes. […] Supernatants were harvested and analyzed for IFNγ production using ELISA. […] Results of the IFNγ produced by clone HER500.23c21 in response to peptide and each HLA-DR allele are reported in pg/mL of IFNγ or as absorbance at 492 nm.

| Substance | dose dependence of HER500.23c21 response to protein [1] | IFNγ and IL-2 production by HER500.23c21 in response to antigen [1] | Stimulation of HER500.23c21 [2] |
| --- | --- | --- | --- |
| BA7072: proprietary recombinant fusion protein: HER500 expressed as a fusion protein with hGM-CSF | dose dependent manner | specifically produced IFNγ and IL-2 |  |
| TYNTDTFESMP (HER-2p270-284 11-mer) [SEQ ID NO:11, 11-mer truncation of HERp270-284] |  |  | successful |
| VTYNTDTFESM (HER-2p270-284 11-mer) [SEQ ID NO:10, 11-mer truncation of HERp270-284] |  |  | successful |
| HER500: recombinant protein containing sequences from both the ECD and ICD of HER-2/neu; HER-2/neu portion of BA7072 | dose dependent manner | specifically produced IFNγ and IL-2 |  |
